For data set [1], the target named is T1, Tyrosine-protein phosphatase non-receptor type 1 (Homo sapiens, UniProt P18031).
T1 sequence (P18031 whole entry): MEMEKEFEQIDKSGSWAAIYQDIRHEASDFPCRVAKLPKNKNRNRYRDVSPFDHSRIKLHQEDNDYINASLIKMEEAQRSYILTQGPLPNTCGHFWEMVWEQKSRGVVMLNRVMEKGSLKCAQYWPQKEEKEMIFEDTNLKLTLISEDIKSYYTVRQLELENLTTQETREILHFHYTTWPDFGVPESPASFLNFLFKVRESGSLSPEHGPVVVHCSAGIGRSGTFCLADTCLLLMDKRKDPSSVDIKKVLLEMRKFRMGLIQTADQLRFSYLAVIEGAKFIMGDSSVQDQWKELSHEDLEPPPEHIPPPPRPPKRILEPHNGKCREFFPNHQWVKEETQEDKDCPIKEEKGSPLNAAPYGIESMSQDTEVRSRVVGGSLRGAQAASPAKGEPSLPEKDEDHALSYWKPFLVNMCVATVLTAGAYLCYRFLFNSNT
The data set can be described thus: In vitro inhibitory activity against Protein tyrosine phosphatase 1B (PTP1B) over-expressed in intact Sf9 cell assay.

Data set [2] concerns the target T2, Receptor-type tyrosine-protein phosphatase C (Homo sapiens, UniProt P08575).
T2 sequence (P08575 whole entry): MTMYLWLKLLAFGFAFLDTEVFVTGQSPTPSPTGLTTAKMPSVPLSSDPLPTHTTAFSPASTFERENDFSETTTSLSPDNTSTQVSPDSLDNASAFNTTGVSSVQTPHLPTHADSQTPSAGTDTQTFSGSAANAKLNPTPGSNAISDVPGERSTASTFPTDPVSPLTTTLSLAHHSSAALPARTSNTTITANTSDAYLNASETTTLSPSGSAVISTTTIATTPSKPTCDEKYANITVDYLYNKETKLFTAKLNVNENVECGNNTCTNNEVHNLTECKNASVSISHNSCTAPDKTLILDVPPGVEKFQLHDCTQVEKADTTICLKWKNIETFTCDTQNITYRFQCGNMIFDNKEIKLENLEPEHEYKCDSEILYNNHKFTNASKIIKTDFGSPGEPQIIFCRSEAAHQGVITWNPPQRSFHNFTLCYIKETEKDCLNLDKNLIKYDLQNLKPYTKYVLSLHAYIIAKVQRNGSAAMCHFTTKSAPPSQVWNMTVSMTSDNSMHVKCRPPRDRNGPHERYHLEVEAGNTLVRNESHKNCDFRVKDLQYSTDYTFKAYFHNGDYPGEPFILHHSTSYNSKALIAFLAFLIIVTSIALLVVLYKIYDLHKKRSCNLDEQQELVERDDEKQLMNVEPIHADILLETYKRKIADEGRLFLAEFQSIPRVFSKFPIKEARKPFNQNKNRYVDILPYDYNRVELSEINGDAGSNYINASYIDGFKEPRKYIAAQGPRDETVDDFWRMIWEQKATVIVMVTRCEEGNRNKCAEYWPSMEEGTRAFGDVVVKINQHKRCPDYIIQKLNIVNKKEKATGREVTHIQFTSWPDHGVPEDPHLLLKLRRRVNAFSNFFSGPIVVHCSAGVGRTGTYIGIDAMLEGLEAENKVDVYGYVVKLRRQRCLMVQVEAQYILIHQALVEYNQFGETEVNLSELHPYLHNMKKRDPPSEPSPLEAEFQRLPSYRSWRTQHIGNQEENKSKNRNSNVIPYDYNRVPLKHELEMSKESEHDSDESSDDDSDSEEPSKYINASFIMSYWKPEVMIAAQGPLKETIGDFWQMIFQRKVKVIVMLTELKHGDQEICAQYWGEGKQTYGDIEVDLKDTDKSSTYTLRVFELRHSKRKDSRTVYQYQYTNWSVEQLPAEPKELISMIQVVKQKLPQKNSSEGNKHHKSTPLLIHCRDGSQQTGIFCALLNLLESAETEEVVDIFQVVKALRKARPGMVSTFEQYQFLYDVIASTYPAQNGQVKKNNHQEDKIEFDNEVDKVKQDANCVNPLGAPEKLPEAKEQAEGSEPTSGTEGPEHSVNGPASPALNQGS
The data set can be described thus: In vitro inhibitory activity against CD45 protein-tyrosine phosphatase.

Data set [3] concerns the target T1, Tyrosine-protein phosphatase non-receptor type 1. Description: In vitro inhibitory activity against protein tyrosine phosphatase 1B (PTP1B) was determined in fluorescein diphosphate (FDP) assay.
The nature of data set [4]: In vitro inhibitory activity against Protein tyrosine phosphatase 1B (PTP1B) over-expressed in intact Sf9 cell assay; NA denotes not active.
A short description of data set [5]: Half life in ob/ob mice. Format: ADME, organism-based. The settings on record: mouse, in vivo.
The nature of data set [6]: Maximal concentration in rat was determined. The settings on record: in vivo. Format: ADME, organism-based.
Data set [7] is described as follows: Oral bioavailability in rat. In kind it is ADME, organism-based. The settings on record: in vivo.

Several values for one entry are separate records, joined by “and”; a condition that tells them apart may be missing. Equal entries are not always repeated.

For orientation: IC50 means the concentration at which inhibition is half-maximal. Read a high IC50 as weaker potency. As for `O=C(c1ccccc1)C(Cc1ccc(C(F)(F)P(=O)(O)O)c(Cl)c1)c1ccccc1` (configuration not stated), the half-maximal inhibitory concentration (IC50) was 2400 nM in data set [1], > 50000 nM in data set [2] and 360 nM in data set [3].
As for `CC(=O)NS(=O)(=O)c1ccc(CC(Cc2ccc(C(F)(F)P(=O)(O)O)cc2)(C(=O)OCc2ccccc2)C(=O)OCc2ccccc2)cc1`, the IC50 in data set [1] was 1700 nM; in data set [2] it was 25000 nM; in data set [3], 90 nM.
On to `O=C(c1ccccc1)C(Cc1ccc(C(F)(F)P(=O)(O)O)cc1)c1ccccc1` (configuration not stated), for which the IC50 in data set [1] is 16000 nM; in data set [2], > 50000 nM; in data set [3] it was 2000 nM.
As to `O=C(c1ccccc1)C(Cc1ccc(C(F)(F)P(=O)(O)O)cc1)(Cc1ccc(C(F)(F)P(=O)(O)O)cc1)c1ccccc1`, the IC50 in data set [1] was 580 nM and 1500 nM; in data set [2], > 50000 nM; in data set [3], 60 nM and 190 nM.
On to `O=C(c1ccccc1)C(C/C=C/c1ccccc1)(Cc1ccc(C(F)(F)P(=O)(O)O)cc1)c1ccccc1` (configuration not stated), for which the results for the IC50 in data set [1], in data set [2] and in data set [3] were 2000 nM, 5500 nM and 190 nM, respectively.
Regarding `CC(C)OC(=O)C(Cc1ccc(C(F)(F)P(=O)(O)O)cc1)(Cc1ccc(C(F)(F)P(=O)(O)O)cc1)C(=O)OC(C)C`, the results for the half-maximal inhibitory concentration (IC50) in data set [1], in data set [2] and in data set [3] were 1650 nM, > 50000 nM and 110 nM, respectively.
The like results for `O=P(O)(O)C(F)(F)c1ccc(CC(Cc2ccc(C(F)(F)P(=O)(O)O)cc2)(OCc2ccccc2)OCc2ccccc2)cc1` were, in that order, 1300 nM, > 50000 nM and 160 nM.
In the case of `O=C(OCc1ccccc1)C(Cc1ccc(C(F)(F)P(=O)(O)O)cc1)(Cc1ccc(C(F)(F)P(=O)(O)O)cc1)C(=O)OCc1ccccc1`, the IC50 was determined as 540 nM in data set [1], 19000 nM in data set [2] and 60 nM in data set [3].
In the case of `O=C(O)c1ccc(CC(Cc2ccc(C(F)(F)P(=O)(O)O)cc2)(C(=O)c2ccccc2)c2ccccc2)cc1` (configuration not stated), the figures for the IC50 in data set [1], in data set [2] and in data set [3] were 6630 nM, > 50000 nM and 800 nM, respectively.
Turning to `CS(=O)(=O)c1ccc(CC(Cc2ccc(C(F)(F)P(=O)(O)O)cc2)(C(=O)OCc2ccccc2)C(=O)OCc2ccccc2)cc1`, the figures for the IC50 in data set [1], in data set [2] and in data set [3] were 7200 nM, > 50000 nM and 940 nM, respectively.
As for `COC(=O)C(Cc1ccc(C(F)(F)P(=O)(O)O)cc1)(Cc1ccc(C(F)(F)P(=O)(O)O)cc1)C(=O)O`, the IC50 in data set [1] was 3800 nM; in data set [2] it was > 50000 nM; in data set [3], 390 nM.
Turning to `O=C(c1ccccc1)C(Cc1ccc(C(F)(F)P(=O)(O)O)c(-c2ccccc2)c1)c1ccccc1` (configuration not stated), the IC50 entry in data set [4] is “Not Active”; in data set [2], > 50000 nM; in data set [3], 16000 nM.
One may read the half-life as the time needed for the level to fall by half in the phase considered. Read a low half-life as fast loss. Consider `COC(=O)C(Cc1ccc(C(F)(F)P(=O)(O)O)cc1)(Cc1ccc(C(F)(F)P(=O)(O)O)cc1)C(=O)OCc1ccccc1`, for which the IC50 was 1000 nM in data set [1], > 50000 nM in data set [2] and 190 nM in data set [3]. The half-life in data set [5] was < 30 min.
`O=C(OCc1ccccc1)C(Cc1ccc(C(F)(F)C(=O)O)cc1)(Cc1ccc(C(F)(F)P(=O)(O)O)cc1)C(=O)OCc1ccccc1`: the values for the half-maximal inhibitory concentration (IC50) in data set [1], in data set [2] and in data set [3] were 1900 nM, > 50000 nM and 40 nM, respectively.
The term Cmax denotes the maximum level reached in the sampled fluid or tissue. By bioavailability is commonly meant dose-corrected exposure relative to a reference, in per cent. Read a high bioavailability as much systemic uptake. As for `O=C(c1ccccc1)C(Cc1ccc(C(F)(F)P(=O)(O)O)c(Br)c1)c1ccccc1` (configuration not stated), the IC50 in data set [1] was 1220 nM; in data set [2] it was > 50000 nM. This compound came in with a Cmax in data set [6] of 35 µM. Moreover, the bioavailability in data set [7] was found to be 13%.

The record behind these values is ChEMBL document CHEMBL1146669, “The development of potent non-peptidic PTP-1B inhibitors” (Bioorg Med Chem Lett, 2004).
